In patent publication US20180370927A1, “MICROBIOCIDAL OXADIAZOLE DERIVATIVES” (SYNGENTA PARTICIPATIONS AG, priority 2015, published 2018):

Experiments:
[1] = test system: Puccinia recondita f. Sp. Tritici; assay: Puccinia recondita f. sp. tritici / wheat / leaf disc preventative (brown rust); assay type: in vivo; details: foliar, 200 ppm in the applied formulation, wheat leaf segments, preventative, assessed 7 to 9 days after application, read-out: disease control compared to untreated control leaf disks
Outline: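 Wheat cv. Kanzler leaf segments on agar sprayed with formulated compound in water, inoculated with rust spores 1 day later. Incubated at 19° C, 75% rh, 12 h light/12 h dark; percent disease control versus untreated scored 7 to 9 days after application; tested at 200 ppm.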

[2] = test system: Puccinia recondita f. Sp. Tritici; assay: Puccinia recondita f. sp. tritici / wheat / leaf disc curative (brown rust); assay type: in vivo; details: foliar, 200 ppm in the applied formulation, wheat leaf segments, curative (applied 1 day after inoculation), assessed 6 to 8 days after application, read-out: disease control compared to untreated control leaf disks
Outline: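 Wheat cv. Kanzler leaf segments on agar were inoculated with spores, kept dark at 19° C, 75% RH, then sprayed with diluted formulated compound 1 day after inoculation (curative). Incubation continued at 19° C, 75% RH, 12 h light/12 h dark, with percent disease control versus untreated scored 6 to 8 days after application.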

Phakopsora pachyrhizi = Phakopsora pachyrhizi / soybean / leaf disc preventative (Asian soybean rust); assay type: in vivo; details: foliar, 200 ppm in the applied formulation, soybean leaf disks, assessed 12 to 14 days after application, read-out: disease control compared to untreated control leaf disks
Outline: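 Soybean leaf discs on water agar were sprayed with formulated compound diluted in water, then inoculated one day later with spore suspension on the lower leaf surface. Held 24-36 h dark at 20° C., 75% RH, then 12 h light/day; percent disease control versus untreated scored 12 to 14 days after application.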

[3] = test system: Glomerella lacenarium (Colletotrichum lacenarium); assay: Glomerella lacenarium (Colletotrichum lacenarium) liquid culture / cucumber / preventative (anthracnose); assay type: cell-based; details: 20 ppm in the applied formulation, liquid culture in PDB, 24° C., 3 to 4 days after application, read-out: disease control (inhibition of growth, photometric) compared to untreated control
Outline: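 Cryostored conidia in potato dextrose broth added to DMSO compound solution in microtiter plates, incubated at 24° C. Growth inhibition read photometrically 3 to 4 days after application, as percent control versus untreated check; compounds tested at 20 ppm.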

CON(Cc1ccc(-c2noc(C(F)(F)F)n2)cc1)C(=O)C(=O)c1ccccc1 [Compound 1.76, N-methoxy-2-oxo-phenyl-N-[[4-[5-(trifluoromethyl)-1,2,4-oxadiazol-3-yl]phenyl]methyl]acetamide]
≥ 80%: pest or weed control at 200 ppm [1] | pest or weed control at 200 ppm [2] | pest or weed control at 200 ppm (Phakopsora pachyrhizi) | inhibition at 20 ppm [3]

O=C(NCc1ccc(-c2noc(C(F)(F)F)n2)cc1F)C(=O)c1ccco1 [Compound 1.77, N-[[2-fluoro-4-[5-(trifluoromethyl)-1,2,4-oxadiazol-3-yl]phenyl]methyl]-2-(2-furyl)-2-oxo-acetamide]
≥ 80%: pest or weed control at 200 ppm [1] | pest or weed control at 200 ppm [2] | pest or weed control at 200 ppm (Phakopsora pachyrhizi) | inhibition at 20 ppm [3]

CCC(=O)C(=O)NCc1ccc(-c2noc(C(F)(F)F)n2)c(F)c1 [Compound 1.78, N-[[3-fluoro-4-[5-(trifluoromethyl)-1,2,4-oxadiazol-3-yl]phenyl]methyl]-2-oxo-butanamide]
≥ 80%: pest or weed control at 200 ppm [1] | pest or weed control at 200 ppm [2] | pest or weed control at 200 ppm (Phakopsora pachyrhizi) | inhibition at 20 ppm [3]

O=C(NCc1ccc(-c2noc(C(F)(F)F)n2)c(F)c1)C(=O)c1ccco1 [Compound 1.79, N-[[3-fluoro-4-[5-(trifluoromethyl)-1,2,4-oxadiazol-3-yl]phenyl]methyl]-2-(2-furyl)-2-oxo-acetamide]
≥ 80%: pest or weed control at 200 ppm [1] | pest or weed control at 200 ppm [2] | pest or weed control at 200 ppm (Phakopsora pachyrhizi) | inhibition at 20 ppm [3]

CCC(=O)C(=O)NCc1ccc(-c2noc(C(F)(F)F)n2)c(F)c1F [Compound 1.80, N-[[2,3-difluoro-4-[5-(trifluoromethyl)-1,2,4-oxadiazol-3-yl]phenyl]methyl]-2-oxo-butanamide]
≥ 80%: pest or weed control at 200 ppm [1] | pest or weed control at 200 ppm [2] | pest or weed control at 200 ppm (Phakopsora pachyrhizi) | inhibition at 20 ppm [3]

O=C(NCc1ccc(-c2noc(C(F)(F)F)n2)cc1)C(=O)c1ccco1 [Compound 1.82, 2-(2-furyl)-2-oxo-N-[[4-[5-(trifluoromethyl)-1,2,4-oxadiazol-3-yl]phenyl]methyl]acetamide]
≥ 80%: pest or weed control at 200 ppm [1] | pest or weed control at 200 ppm [2] | pest or weed control at 200 ppm (Phakopsora pachyrhizi) | inhibition at 20 ppm [3]

CON(Cc1ccc(-c2noc(C(F)(F)F)n2)cc1F)C(=O)C(=O)c1ccco1 [Compound 1.83, N-[[2-fluoro-4-[5-(trifluoromethyl)-1,2,4-oxadiazol-3-yl]phenyl]methyl]-2-(2-furyl)-N-methoxy-2-oxo-acetamide]
≥ 80%: pest or weed control at 200 ppm [1] | pest or weed control at 200 ppm [2] | pest or weed control at 200 ppm (Phakopsora pachyrhizi) | inhibition at 20 ppm [3]

CC(=O)C(=O)NCc1c(F)cc(-c2noc(C(F)(F)F)n2)cc1F [Compound 1.87, N-[[2,6-difluoro-4-[5-(trifluoromethyl)-1,2,4-oxadiazol-3-yl]phenyl]methyl]-2-oxo-propanamide]
≥ 80%: pest or weed control at 200 ppm [1] | pest or weed control at 200 ppm [2] | pest or weed control at 200 ppm (Phakopsora pachyrhizi) | inhibition at 20 ppm [3]

O=C(NCc1c(F)cc(-c2noc(C(F)(F)F)n2)cc1F)C(=O)c1ccco1 [Compound 1.88, N-[[2,6-difluoro-4-[5-(trifluoromethyl)-1,2,4-oxadiazol-3-yl]phenyl]methyl]-2-(2-furyl)-2-oxo-acetamide]
≥ 80%: pest or weed control at 200 ppm [1] | pest or weed control at 200 ppm [2] | pest or weed control at 200 ppm (Phakopsora pachyrhizi) | inhibition at 20 ppm [3]

CCC(=O)C(=O)N(Cc1ccc(-c2noc(C(F)(F)F)n2)cc1)OC [Compound 1.89, N-methoxy-2-oxo-N-[[4-[5-(trifluoromethyl)-1,2,4-oxadiazol-3-yl]phenyl]methyl]butanamide]
≥ 80%: pest or weed control at 200 ppm [1] | pest or weed control at 200 ppm [2] | pest or weed control at 200 ppm (Phakopsora pachyrhizi) | inhibition at 20 ppm [3]

CON(Cc1ccc(-c2noc(C(F)(F)F)n2)cc1)C(=O)C(=O)c1ccco1 [Compound 1.90, 2-(2-furyl)-N-methoxy-2-oxo-N-[[4-[5-(trifluoromethyl)-1,2,4-oxadiazol-3-yl]phenyl]methyl]acetamide]
≥ 80%: pest or weed control at 200 ppm [1] | pest or weed control at 200 ppm [2] | pest or weed control at 200 ppm (Phakopsora pachyrhizi) | inhibition at 20 ppm [3]

CC(=O)C(=O)N(Cc1ccc(-c2noc(C(F)(F)F)n2)cc1)C1CC1 [Compound 1.91, N-cyclopropyl-2-oxo-N-[[4-[5-(trifluoromethyl)-1,2,4-oxadiazol-3-yl]phenyl]methyl]propanamide]
≥ 80%: pest or weed control at 200 ppm [1] | pest or weed control at 200 ppm [2] | pest or weed control at 200 ppm (Phakopsora pachyrhizi) | inhibition at 20 ppm [3]

O=C(C(=O)N(Cc1ccc(-c2noc(C(F)(F)F)n2)cc1)C1CC1)C1CC1 [Compound 1.92, N,2-dicyclopropyl-2-oxo-N-[[4-[5-(trifluoromethyl)-1,2,4-oxadiazol-3-yl]phenyl]methyl]acetamide]
≥ 80%: pest or weed control at 200 ppm [1] | pest or weed control at 200 ppm [2] | pest or weed control at 200 ppm (Phakopsora pachyrhizi) | inhibition at 20 ppm [3]

CCN(Cc1ccc(-c2noc(C(F)(F)F)n2)cc1)C(=O)C(=O)C1CC1 [Compound 1.93, 2-cyclopropyl-N-ethyl-2-oxo-N-[[4-[5-(trifluoromethyl)-1,2,4-oxadiazol-3-yl]phenyl]methyl]acetamide]
≥ 80%: pest or weed control at 200 ppm [1] | pest or weed control at 200 ppm [2] | pest or weed control at 200 ppm (Phakopsora pachyrhizi) | inhibition at 20 ppm [3]

CN(Cc1ccc(-c2noc(C(F)(F)F)n2)cc1)C(=O)C(=O)C1CC1 [Compound 1.94, 2-cyclopropyl-N-methyl-2-oxo-N-[[4-[5-(trifluoromethyl)-1,2,4-oxadiazol-3-yl]phenyl]methyl]acetamide]
≥ 80%: pest or weed control at 200 ppm [1] | pest or weed control at 200 ppm [2] | pest or weed control at 200 ppm (Phakopsora pachyrhizi) | inhibition at 20 ppm [3]

CC(C)C(=O)C(=O)N(C)Cc1ccc(-c2noc(C(F)(F)F)n2)cc1 [Compound 1.95, N,3-dimethyl-2-oxo-N-[[4-[5-(trifluoromethyl)-1,2,4-oxadiazol-3-yl]phenyl]methyl]butanamide]
≥ 80%: pest or weed control at 200 ppm [1] | pest or weed control at 200 ppm [2] | pest or weed control at 200 ppm (Phakopsora pachyrhizi) | inhibition at 20 ppm [3]

CCN(Cc1ccc(-c2noc(C(F)(F)F)n2)cc1)C(=O)C(=O)C(C)C [Compound 1.96, N-ethyl-3-methyl-2-oxo-N-[[4-[5-(trifluoromethyl)-1,2,4-oxadiazol-3-yl]phenyl]methyl]butanamide]
≥ 80%: pest or weed control at 200 ppm [1] | pest or weed control at 200 ppm [2] | pest or weed control at 200 ppm (Phakopsora pachyrhizi) | inhibition at 20 ppm [3]

CC(C)C(=O)C(=O)N(Cc1ccc(-c2noc(C(F)(F)F)n2)cc1)C1CC1 [Compound 1.97, N-cyclopropyl-3-methyl-2-oxo-N-[[4-[5-(trifluoromethyl)-1,2,4-oxadiazol-3-yl]phenyl]methyl]butanamide]
≥ 80%: pest or weed control at 200 ppm [1] | pest or weed control at 200 ppm [2] | pest or weed control at 200 ppm (Phakopsora pachyrhizi) | inhibition at 20 ppm [3]

CCC(=O)C(=O)N(C)Cc1ccc(-c2noc(C(F)(F)F)n2)cc1 [Compound 1.98, N-methyl-2-oxo-N-[[4-[5-(trifluoromethyl)-1,2,4-oxadiazol-3-yl]phenyl]methyl]butanamide]
≥ 80%: pest or weed control at 200 ppm [1] | pest or weed control at 200 ppm [2] | pest or weed control at 200 ppm (Phakopsora pachyrhizi) | inhibition at 20 ppm [3]

CCC(=O)C(=O)N(CC)Cc1ccc(-c2noc(C(F)(F)F)n2)cc1 [Compound 1.99, N-ethyl-2-oxo-N-[[4-[5-(trifluoromethyl)-1,2,4-oxadiazol-3-yl]phenyl]methyl]butanamide]
≥ 80%: pest or weed control at 200 ppm [1] | pest or weed control at 200 ppm [2] | pest or weed control at 200 ppm (Phakopsora pachyrhizi) | inhibition at 20 ppm [3]

CCC(=O)C(=O)N(Cc1ccc(-c2noc(C(F)(F)F)n2)cc1)C1CC1 [Compound 1.100, N-cyclopropyl-2-oxo-N-[[4-[5-(trifluoromethyl)-1,2,4-oxadiazol-3-yl]phenyl]methyl]butanamide]
≥ 80%: pest or weed control at 200 ppm [1] | pest or weed control at 200 ppm [2] | pest or weed control at 200 ppm (Phakopsora pachyrhizi) | inhibition at 20 ppm [3]

CO/N=C(\C)C(=O)N(Cc1ccc(-c2noc(C(F)(F)F)n2)cc1)OC [Compound 2.10, (2E)-N-methoxy-2-methoxyimino-N-[[4-[5-(trifluoromethyl)-1,2,4-oxadiazol-3-yl]phenyl]methyl] propanamide]
≥ 80%: pest or weed control at 200 ppm [1] | pest or weed control at 200 ppm [2] | pest or weed control at 200 ppm (Phakopsora pachyrhizi) | inhibition at 20 ppm [3]

CO/N=C(/C)C(=O)N(Cc1ccc(-c2noc(C(F)(F)F)n2)cc1)OC [Compound 2.11, (2Z)-N-methoxy-2-methoxyimino-N-[[4-[5-(trifluoromethyl)-1,2,4-oxadiazol-3-yl]phenyl]methyl] propanamide]
≥ 80%: pest or weed control at 200 ppm [1] | pest or weed control at 200 ppm [2] | pest or weed control at 200 ppm (Phakopsora pachyrhizi) | inhibition at 20 ppm [3]
